From ChEMBL document CHEMBL2010716, “Structure based design of an in vivo active hydroxamic acid inhibitor of P. aeruginosa LpxC” (Bioorg Med Chem Lett, 2012)
Converted amounts (≈) assume the structure as drawn. The source made the active and inactive calls. The calls are words filed in the database; no cut-off is given here.

How the values were obtained:
[1] = Half life in human hepatocytes; type: ADME, cell-based, Liver, Hepatocyte
[2] = Kinetic solubility of the compound; type: physicochemical; details: read-out: Kinetic_solubility
[3] = biological target: T1, UDP-3-O-acyl-N-acetylglucosamine deacetylase (Pseudomonas aeruginosa (strain ATCC 15692 / PAO1 / 1C / PRS 101 / LMG12228), UniProt P47205); assay: Inhibition of Pseudomonas aeruginosa LpxC
T1 sequence (P47205 whole entry): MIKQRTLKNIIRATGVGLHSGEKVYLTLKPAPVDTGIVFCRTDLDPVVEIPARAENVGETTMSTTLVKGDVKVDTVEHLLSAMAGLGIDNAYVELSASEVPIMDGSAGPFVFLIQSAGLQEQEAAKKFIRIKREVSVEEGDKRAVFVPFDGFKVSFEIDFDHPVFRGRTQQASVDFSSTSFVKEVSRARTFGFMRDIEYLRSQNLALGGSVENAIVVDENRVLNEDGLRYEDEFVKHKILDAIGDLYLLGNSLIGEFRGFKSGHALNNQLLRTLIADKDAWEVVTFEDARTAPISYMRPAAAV

[4] = system: Pseudomonas aeruginosa; assay: Antibacterial activity against wild type Pseudomonas aeruginosa UI-18 by NCCLS method; type: functional
[5] = system: Pseudomonas aeruginosa; assay: Antibacterial activity against efflux pump knock-down Pseudomonas aeruginosa PAO280 by twofold broth microdilution technique; type: functional
[6] = system: Pseudomonas aeruginosa; assay: Antibacterial activity against Pseudomonas aeruginosa C53; type: functional
[7] = biological target: T2, UDP-3-O-acyl-N-acetylglucosamine deacetylase (Escherichia coli K-12, UniProt P0A725); assay: Inhibition of Escherichia coli LpxC
T2 sequence (P0A725 whole entry): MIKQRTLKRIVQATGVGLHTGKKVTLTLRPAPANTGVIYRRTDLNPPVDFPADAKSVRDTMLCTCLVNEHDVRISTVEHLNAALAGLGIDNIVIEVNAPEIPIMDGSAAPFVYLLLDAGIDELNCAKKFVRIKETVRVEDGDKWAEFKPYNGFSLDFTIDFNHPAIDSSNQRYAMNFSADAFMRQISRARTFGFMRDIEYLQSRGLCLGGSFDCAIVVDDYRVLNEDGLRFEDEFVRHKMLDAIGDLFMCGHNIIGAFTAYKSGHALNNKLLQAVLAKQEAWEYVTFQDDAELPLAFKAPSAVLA

[8] = system: Pseudomonas aeruginosa; assay: Antibacterial activity against wild type Pseudomonas aeruginosa; type: functional
[9] = system: Pseudomonas aeruginosa; assay: Antibacterial activity against wild type Pseudomonas aeruginosa UI-18 infected in sc dosed mouse; type: functional, organism-based
[10] = Kinetic solubility of the compound at pH 6.5; type: physicochemical; details: buffer, read-out: Kinetic_solubility
[11] = system: Pseudomonas aeruginosa; assay: Antibacterial activity against wild type Pseudomonas aeruginosa UI-18 infected in iv dosed mouse; type: functional; details: UI-18, iv, read-out: PD50
[12] = Half life in rat hepatocytes; type: ADME, cell-based, Liver, Hepatocyte

Structure (SMILES)	IC50 [3] [nM]	MIC [4] [µg/mL]	MIC [5] [µg/mL]	other results
CC(CO)(CCc1ccc(-c2ccccc2)cc1)C(=O)NO (configuration not stated)	3.3	16 (≈ 53.4 µM)	0.5 (≈ 1.67 µM)	half-life [1]: 1.2 h; solubility kinetic [2]: 89 µM (≈ 26.6 µg/mL)
C[C@@](OCc1ccc(-c2ccccc2)cc1)(C(=O)NO)[C@@H](O)c1ccccc1	51	> 64	8 (≈ 21.2 µM)	
O=C(NO)[C@@H](Cc1ccc2ccccc2c1)NS(=O)(=O)c1ccc2ccccc2c1				MIC [6]: 4 µg/mL (≈ 9.51 µM); Ki [7]: 20 nM
Cn1ccnc1[C@H](O)[C@](C)(OCc1ccc(-c2ccccc2)cc1)C(=O)NO	25	33 (≈ 86.5 µM)	0.19 (≈ 0.498 µM)	
C[C@@](OCc1ccc(-c2ccccc2)cc1)(C(=O)NO)[C@@H](O)c1ccn[nH]1	0.4	4 (≈ 10.9 µM)	0.25 (≈ 0.68 µM)	
CCOCC[C@H](O)[C@](C)(OCc1ccc(-c2ccccc2)cc1)C(=O)NO	28	> 64	> 64	
C[C@@](OCc1ccc(-c2ccccc2)cc1)(C(=O)NO)[C@@H](O)c1c[nH]cn1	0.8	8 (≈ 21.8 µM)	0.125 (≈ 0.34 µM)	
CC(C)(OCc1ccc(-c2ccccc2)cc1)C(=O)NO	311			MIC [8]: > 64 µg/mL
CCCC[C@H](O)[C@](C)(OCc1ccc(-c2ccccc2)cc1)C(=O)NO	90			
CC(C)[C@H](O)[C@](C)(OCc1ccc(-c2ccccc2)cc1)C(=O)NO		> 64	32 (≈ 93.2 µM)	
C[C@@](OCc1ccc(-c2ccccc2)cc1)(C(=O)NO)[C@@H](O)c1ccon1	0.4	6 (≈ 16.3 µM)	0.06 (≈ 0.163 µM)	
C[C@@](OCc1ccc(-c2ccccc2)cc1)(C(=O)NO)[C@@H](O)c1cc(CO)on1	0.6	1 (≈ 2.51 µM)	0.015 (≈ 0.0376 µM)	half-life [1]: 2.33 h; Activity [9]: inactive; solubility kinetic [10]: 130 µM (≈ 51.8 µg/mL); ED50 [11]: 37 mg/kg
CC[C@H](O)[C@@](C)(OCc1ccc(-c2ccccc2)cc1)C(=O)NO	8	> 64	3 (≈ 9.11 µM)	
CC(C)C[C@H](O)[C@](C)(OCc1ccc(-c2ccccc2)cc1)C(=O)NO		> 64	64 (≈ 179 µM)	
CC(CO)(COc1ccc(-c2ccccc2)cc1)C(=O)NO (configuration not stated)	390			half-life [1]: 1.43 h; solubility kinetic [2]: 26 µM (≈ 7.83 µg/mL)
C[C@@](OCc1ccc(-c2ccccc2)cc1)(C(=O)NO)[C@@H](O)c1cccnc1	18	32 (≈ 84.6 µM)	0.5 (≈ 1.32 µM)	
C[C@@](OCc1ccc(-c2ccccc2)cc1)(C(=O)NO)[C@@H](O)c1ccno1	0.8	8 (≈ 21.7 µM)	0.125 (≈ 0.339 µM)	
C[C@@H](N)[C@@H](NC(=O)N1CCN(c2ccc(C#Cc3ccccc3)cc2)CC1)C(=O)NO				MIC [8]: 12.5 µg/mL (≈ 29.7 µM)
Cn1nncc1[C@H](O)[C@](C)(OCc1ccc(-c2ccccc2)cc1)C(=O)NO	26	> 64	2 (≈ 5.23 µM)	
CC(CO)(OCc1ccc(-c2ccccc2)cc1)C(=O)NO (racemic)	22	> 64	4 (≈ 13.3 µM)	half-life [1]: 6 h; MIC [8]: > 64 µg/mL; solubility kinetic [2]: 200 µM (≈ 60.3 µg/mL)
C[C@@H](O)[C@](C)(OCc1ccc(-c2ccccc2)cc1)C(=O)NO	4	64 (≈ 203 µM)	0.75 (≈ 2.38 µM)	
CC(CO)(NC(=O)c1ccc(-c2ccccc2)cc1)C(=O)NO (racemic)	286	> 64	32 (≈ 102 µM)	half-life [1]: 3.83 h; half-life [12]: 3.67 h; MIC [8]: > 64 µg/mL; solubility kinetic [2]: 200 µM (≈ 62.9 µg/mL)
C[C@H](O)[C@](C)(OCc1ccc(-c2ccccc2)cc1)C(=O)NO		32 (≈ 101 µM)	0.5 (≈ 1.59 µM)	
CCc1ccc(-c2ccc(C(=O)N[C@H](C(=O)NO)[C@@H](C)O)cc2)cc1	8			half-life [1]: 3.83 h; half-life [12]: 0.75 h; MIC [8]: 4 µg/mL (≈ 11.7 µM)
C[C@@](OCc1ccc(-c2ccccc2)cc1)(C(=O)NO)[C@@H](O)c1ncco1	3	8 (≈ 21.7 µM)	0.25 (≈ 0.679 µM)	
Cc1cc([C@H](O)[C@](C)(OCc2ccc(-c3ccccc3)cc2)C(=O)NO)no1		1.75 (≈ 4.58 µM)	0.015 (≈ 0.0392 µM)	half-life [1]: 0.333 h; solubility kinetic [10]: 59 µM (≈ 22.6 µg/mL)
C[C@](OCc1ccc(-c2ccccc2)cc1)(C(=O)NO)[C@@H](O)c1ccccn1	15	32 (≈ 84.6 µM)	0.25 (≈ 0.661 µM)	
